Read-outs that look alike come from different tables or passages of the source.
How the values were obtained:
human mu opioid receptor [1] = molecular target: T1, human mu opioid receptor (Homo sapiens, UniProt P35372); experiment: cell-based; details: for Emax: read-out: % max effect, mu opioid receptor
T1 construct: expressed in transfected cells; host or cells: CHO cells
Procedure: Studies were conducted in CHO cells heterologously expressing the cloned human mu, kappa or delta opioid receptors. cAMP was measured using a cAMP HiRange homogenous time-resolved fluorescence assay (HTRF Assay), that is based on a competitive immunoassay principle (Cisbio, Cat.#62AM6PEC).
Briefly, suspensions of cells expressing either the mu, kappa or delta opioid receptors were prepared in buffer containing 0.5 mM isobutyl-methyl xanthine (IBMX). […] EC50 values were calculated for each compound from a sigmoidal dose-response plot of concentrations versus maximum response. To determine if the compounds behaved as full or partial agonists in the system, the maximal response at the highest tested concentrations of compounds were compared to that produced by a known full agonist.

human mu opioid receptor [2] = molecular target: T1, human mu opioid receptor; experiment: biochemical; format: binding
Procedure: Radioligand displacement was measured using scintillation proximity assays (SPA).
Briefly, serial dilutions of the test compounds were placed in a 96-well plate to which were added SPA beads, membrane and radioligand. The assay conditions for each opioid receptor subtype are described in Table 10 below. The plates were incubated for 8 hours-overnight at room temperature, spun at 1000 rpm to pellet the SPA beads, and radioactivity was measured using the TopCount® microplate Scintillation counter. Specific binding at each concentration of test compound was calculated by subtracting the non-specific binding measured in the presence of excess cold ligand. IC50 values were obtained by non-linear regression of specific binding versus concentration curves and Ki values were calculated using Kd values that were experimentally pre-determined for each lot of membrane preparations.

[3] = Pharmacokinetics following oral (PO) dosing; format: in vivo, Sprague-Dawley rats; set-up: Cmax: unit: ng/mL
Source text: (§1) There were 3 rats/group. All animals were food fasted overnight. […] The predose sample was collected from the JVC.
(§2) Following the last collection point, the animals were euthanized.

[4] = Pharmacokinetics following intravenous (IV) dosing; format: in vivo, Sprague-Dawley rats; set-up: Cmax: unit: ng/mL; details: for Vd: read-out: Vss
Source text: as §1, §2

[5] = read-out: EC50, mu opioid receptor
[6] = CHO-K1 membranes, [3H]DAMGO 6 nM, read-out: Ki, Mu opioid receptor
[7] = maximal response at the highest tested concentration
[8] = male, Sprague-Dawley, rat, plasma, po, 5 mg/kg
[9] = male, Sprague-Dawley, rat, plasma, hydroxycodone series, 5.0 mg/kg oral, Mean ± SD
[10] = male, Sprague-Dawley, rat, plasma, hydroxycodone series, 1 mg/kg IV, Mean ± SD
[11] = male, Sprague-Dawley, rat, plasma, hydroxycodone series, 1 mg/kg IV, Mean ± SD, read-out: Cmax
[12] = male, Sprague-Dawley, rat, plasma, hydroxycodone series, 1 mg/kg IV, Mean ± SD, read-out: T1/2(z)
[13] = male, Sprague-Dawley, rat, plasma, po, 5 mg/kg, read-out: Cmax
[14] = male, Sprague-Dawley, rat, plasma, po, 5 mg/kg, read-out: T1/2(2)
[15] = male, Sprague-Dawley, rat, plasma, po, 5 mg/kg, read-out: Tmax (converted)
[16] = male, Sprague-Dawley, rat, plasma, iv, 1 mg/kg
[17] = male, Sprague-Dawley, rat, plasma, iv, 1 mg/kg, read-out: Cmax
[18] = male, Sprague-Dawley, rat, plasma, iv, 1 mg/kg, read-out: T1/2(2)
[19] = codeine series, 5 mg/kg oral, Mean ± SD

T1 sequence (P35372 whole entry): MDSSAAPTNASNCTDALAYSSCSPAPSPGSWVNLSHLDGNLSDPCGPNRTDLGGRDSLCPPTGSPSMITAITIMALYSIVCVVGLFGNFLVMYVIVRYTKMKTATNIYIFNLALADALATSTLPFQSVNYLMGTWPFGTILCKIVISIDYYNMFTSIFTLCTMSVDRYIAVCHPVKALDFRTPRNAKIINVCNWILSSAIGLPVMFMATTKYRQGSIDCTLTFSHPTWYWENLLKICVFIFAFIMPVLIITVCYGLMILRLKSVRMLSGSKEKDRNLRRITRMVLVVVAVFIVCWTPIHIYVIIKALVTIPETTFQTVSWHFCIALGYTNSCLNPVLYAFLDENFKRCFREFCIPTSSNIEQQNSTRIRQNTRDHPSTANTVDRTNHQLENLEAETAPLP

## COc1ccc2c3c1OC1C(O)CCC4(O)C(C2)N(C)CCC314 (stereo not drawn) [Hydroxycodone, α-6-hydroxycodone, reference compound]
Human mu opioid receptor [1]; [5]
  EC50: 3.16 µM

## COCCOCCOCCOCCOC1C=CC2C3Cc4ccc(O)c5c4C2(CCN3C)C1O5 (stereo not drawn) [α-6-mPEG4-O-morphine]
Human mu opioid receptor [2]
  Ki: 0.0231 µM
Human mu opioid receptor [1]
  EC50: 0.128 µM
  Emax: 100%

## COCCOCCOC1CCC2(O)C3Cc4ccc(OC)c5c4C2(CCN3C)C1O5 (stereo not drawn) [α-6-mPEG2-O-hydroxycodone, α-6-mPEG2-O-oxycodone]
Human mu opioid receptor [2]; [6]
  Ki: 0.632 µM
Human mu opioid receptor [1]; [7]
  Emax: 101%
Human mu opioid receptor [1]; [5]
  EC50: 5.01 µM
[3]; [8]
  bioavailability: 9.4%
[3]; [9]
  AUC: 98.5 ng·h/mL
  MRT last: 55.4 min
[3]; male, Sprague-Dawley, rat, plasma, hydroxycodone series, 5.0 mg/kg oral, Mean ± SD, * n = 2
  AUC(0-inf): 97.2 ng·h/mL
[3]; male, Sprague-Dawley, rat, plasma, hydroxycodone series, 5.0 mg/kg oral, Mean ± SD, * n = 2, read-out: T1/2(z)
  half-life: 48.5 ± 12 min
[3]; male, Sprague-Dawley, rat, plasma, hydroxycodone series, 5.0 mg/kg oral, Mean ± SD, read-out: Cmax
  Cmax: 99.4 ± 47.3 ng/mL
[3]; male, Sprague-Dawley, rat, plasma, hydroxycodone series, 5.0 mg/kg oral, median value, read-out: Tmax (converted)
  Tmax: 15 min
[4]; [10]
  AUC: 200 ng·h/mL
  AUC(0-inf): 203 ng·h/mL
  MRT last: 37 min
  clearance: 83.3 ± 10.8 mL/min/kg
  Vd: 3.36 ± 0.298 L/kg
[4]; [11]
  Cmax: 513 ± 48.8 ng/mL
[4]; [12]
  half-life: 44.6 ± 1.8 min

## COCCOCCOCCOC1C=CC2C3Cc4ccc(OC)c5c4C2(CCN3C)C1O5 (stereo not drawn) [α-6-mPEG3-O-codeine]
Human mu opioid receptor [2]; [6]
  Ki: 4.26 µM
Human mu opioid receptor [1]; [7]
  Emax: 91%
[3]; [8]
  AUC: 32 ng·h/mL
  AUC(0-inf): 34.7 ng·h/mL
  MRT last: 71 min
  bioavailability: 2.39%
[3]; [13]
  Cmax: 25 ± 6.59 ng/mL
[3]; [14]
  half-life: 125 ± 64.6 min
[3]; [15]
  Tmax: 15 min
[4]; [16]
  AUC: 288 ng·h/mL
  AUC(0-inf): 290 ng·h/mL
  MRT last: 33.8 min
  clearance: 57.7 ± 4.89 mL/min/kg
  Vd: 2.07 ± 0.127 L/kg
[4]; [17]
  Cmax: 732 ± 27.1 ng/mL
[4]; [18]
  half-life: 39.4 ± 1.49 min

## COCCOCCOCCOCCOCCOCCOC1C=CC2C3Cc4ccc(O)c5c4C2(CCN3C)C1O5 (stereo not drawn) [α-6-mPEG6-O-morphine]
Human mu opioid receptor [2]
  Ki: 0.073 µM
Human mu opioid receptor [1]
  EC50: 0.415 µM
  Emax: 98%

## COCCOCCOC1C=CC2C3Cc4ccc(O)c5c4C2(CCN3C)C1O5 (stereo not drawn) [α-6-mPEG2-O-morphine]
Human mu opioid receptor [2]
  Ki: 0.022 µM
Human mu opioid receptor [1]
  EC50: 0.0933 µM
  Emax: 91%

## COCCOCCOCCOCCOCCOCCOCCOCCOCCOC1CCC2(O)C3Cc4ccc(OC)c5c4C2(CCN3C)C1O5 (stereo not drawn) [α-6-mPEG9-O-hydroxycodone, α-6-mPEG9-O-oxycodone]
Human mu opioid receptor [1]; [7]
  Emax: 95%
[4]; 1 mg/kg IV
  mean t1/2 value, times that of the parent compound: 3 times
[4]; [10]
  AUC: 277 ng·h/mL
  AUC(0-inf): 350 ng·h/mL
  MRT last: 52.7 min
  clearance: 48.9 ± 9.41 mL/min/kg
  Vd: 6.35 ± 0.349 L/kg
[4]; [11]
  Cmax: 955 ± 149 ng/mL
[4]; [12]
  half-life: 143 ± 14.3 min

## COCCOCCOCCOCCOCCOC1C=CC2C3Cc4ccc(O)c5c4C2(CCN3C)C1O5 (stereo not drawn) [α-6-mPEG5-O-morphine]
Human mu opioid receptor [2]
  Ki: 0.0394 µM
Human mu opioid receptor [1]
  EC50: 0.157 µM
  Emax: 95%

## COCCOCCOCCOCCOCCOCCOCCOCCOCCOC1C=CC2C3Cc4ccc(O)c5c4C2(CCN3C)C1O5 (stereo not drawn) [α-6-mPEG9-O-Morphine, α-6-mPEG-O9-morphine]
Human mu opioid receptor [2]; [6]
  Ki: 0.111 µM
Human mu opioid receptor [1]; [7]
  Emax: 87%
Human mu opioid receptor [1]; [5]
  EC50: 1.06 µM

## COCCOCCOCCOCCOCCOCCOCCOC1C=CC2C3Cc4ccc(OC)c5c4C2(CCN3C)C1O5 (stereo not drawn) [α-6-mPEG7-O-codeine]
Human mu opioid receptor [2]; [6]
  Ki: 9.96 µM
Human mu opioid receptor [1]; [7]
  Emax: 75%
Human mu opioid receptor [1]; [5]
  EC50: 44.7 µM
[3]; [8]
  AUC: 285 ng·h/mL
  AUC(0-inf): 267 ng·h/mL
  MRT last: 171 min
  bioavailability: 26.9%
[3]; [13]
  Cmax: 76.6 ± 12.8 ng/mL
[3]; [14]
  half-life: 97.6 min
[3]; [15]
  Tmax: 120 min
[4]; [16]
  AUC: 212 ng·h/mL
  AUC(0-inf): 228 ng·h/mL
  MRT last: 50.7 min
  clearance: 73.1 ± 1.73 mL/min/kg
  Vd: 5.2 ± 0.596 L/kg
[4]; [17]
  Cmax: 443 ± 43.3 ng/mL
[4]; [18]
  half-life: 74.5 ± 5.76 min

## COCCOC1C=CC2C3Cc4ccc(O)c5c4C2(CCN3C)C1O5 (stereo not drawn) [α-6-mPEG1-O-morphine]
Human mu opioid receptor [2]
  Ki: 0.0157 µM
Human mu opioid receptor [1]
  EC50: 0.085 µM
  Emax: 91%

## COCCOCCOCCOCCOCCOCCOCCOCCOCCOC1C=CC2C3Cc4ccc(OC)c5c4C2(CCN3C)C1O5 (stereo not drawn) [α-6-mPEG9-O-codeine]
Human mu opioid receptor [2]; [6]
  Ki: 9.98 µM
Human mu opioid receptor [1]; [7]
  Emax: 80%
Human mu opioid receptor [1]; [5]
  EC50: 48.2 µM
[3]; [8]
  AUC: 122 ng·h/mL
  AUC(0-inf): 114 ng·h/mL
  MRT last: 179 min
  bioavailability: 8.22%
[3]; [13]
  Cmax: 31.5 ± 8.43 ng/mL
[3]; [14]
  half-life: 143 min
[3]; [15]
  Tmax: 15 min
[4]; [16]
  AUC: 297 ng·h/mL
  AUC(0-inf): 347 ng·h/mL
  MRT last: 57.2 min
  clearance: 48.6 ± 6.74 mL/min/kg
  Vd: 5.18 ± 0.538 L/kg
[4]; [17]
  Cmax: 730 ± 68 ng/mL
[4]; [18]
  half-life: 109 ± 1.8 min

## COCCOCCOCCOCCOCCOC1CCC2(O)C3Cc4ccc(OC)c5c4C2(CCN3C)C1O5 (stereo not drawn) [α-6-mPEG5-O-hydroxycodone, α-6-mPEG5-O-oxycodone]
Human mu opioid receptor [2]; [6]
  Ki: 1.86 µM
Human mu opioid receptor [1]; [7]
  Emax: 108%
Human mu opioid receptor [1]; [5]
  EC50: 5.04 µM
[4]; [10]
  AUC: 282 ng·h/mL
  AUC(0-inf): 295 ng·h/mL
  MRT last: 46.2 min
  clearance: 57 ± 6.07 mL/min/kg
  Vd: 3.3 ± 0.184 L/kg
[4]; [11]
  Cmax: 622 ± 39.7 ng/mL
[4]; [12]
  half-life: 62.1 ± 3.85 min

## COCCOCCOCCOCCOCCOCCOCCOC1C=CC2C3Cc4ccc(O)c5c4C2(CCN3C)C1O5 (stereo not drawn) [α-6-mPEG7-O-morphine]
Human mu opioid receptor [2]
  Ki: 0.0569 µM
Human mu opioid receptor [1]
  EC50: 0.508 µM
  Emax: 90%

## COc1ccc2c3c1O[C@H]1[C@@H](O)C=C[C@H]4[C@@H](C2)N(C)CC[C@@]341 [Codeine, codeine, reference compound]
[3]; [19]
  AUCall: 328 ± 216 ng·min/mL
  Cmax: 6.24 ± 2.51 ng/mL
  MRTlast: 33.2 ± 12.9 min
[3]; codeine series, 5 mg/kg oral, Mean ± SD, # n = 1, * n = 2
  AUCinf: 431^# min · ng/mL
[3]; codeine series, 5 mg/kg oral, median value
  Tmax: 15.0 min
[3]; codeine series, oral bioavailability, 5 mg/kg oral vs 1 mg/kg IV
  F %: 0.60%
[4]; codeine series, 1 mg/kg IV
  AUCall: 11000 ± 1600 ng·min/mL
  AUCinf: 11400 ± 2070 ng·min/mL
  CL: 89.7 ± 15.3 mL/min/kg
  Cmax: 469 ± 20.4 ng/mL
  MRTlast: 40.2 ± 9.08 min
  Vss: 4.14 ± 0.700 L/kg

Reference: patent US20130023553A1, “PEGYLATED OPIOIDS WITH LOW POTENTIAL FOR ABUSE AND SIDE EFFECTS” (Nektar Therapeutics, priority 2010, published 2013)
